Structures can show the parent of a compound that is named as a salt.

Broadly, the melting point is the temperature, or range, at which the solid turns liquid.

Take `COc1cc(CC(=O)N2CSC[C@H]2COc2ccc(C(=O)O)cc2)ccc1NC(=O)Nc1ccccc1Cl` (stereo in doubt) [Compound 169, 4-[3-[4-[N′-(2-chlorophenyl)ureido]-3-methoxyphenylacetyl]-4-thiazolidinyl]methoxybenzoic acid]: the melting point lay in the range of 126 to 129 °C.

Regarding `Cc1ccccc1NC(=O)Nc1ccc(CC(=O)N(C)CCOc2ccc(C(=O)O)cc2N(C)C)cc1` [Compound 278], the melting point is 110 to 115 °C.

`COc1cc(CC(=O)N2C[C@@H](Oc3ccc4ncccc4c3)C[C@H]2COc2ccc(C(=O)O)cc2)ccc1NC(=O)Nc1ccccc1Br` [Compound 122]: the melting point was 149 to 153 °C. Then `O=C(Nc1ccccc1)Nc1ccc(CC(=O)N2C[C@@H](F)C[C@H]2COc2ccc(C(=O)O)cc2)cc1` [Compound 72, 4-[(4S)-fluoro-1-[4-(N′-phenylureido)phenylacetyl]-(2S)-pyrrolidinylmethoxy]benzoic acid], with 169 to 171 °C; and `COc1cc(CC(=O)N[C@@H](C)COc2ccc(C(=O)O)cc2)ccc1NC(=O)Nc1ccccc1C` [Compound 272, (S)-4-[2-[3-methoxy-4-[N′-(2-methylphenyl)ureido]phenylacetylamino]-1-propoxy]benzoic acid], with 198 to 201 °C; and `COc1cc(CC(=O)N2CCC[C@H]2COc2ccc(C(=O)O)cc2OC)ccc1NC(=O)Nc1ccccc1C` [Compound 27], with 132 to 135 °C. Then `COc1cc(CC(=O)N2CCC[C@H]2COc2ccc(C(=O)O)cc2OC)ccc1NC(=O)Nc1ccccc1F` (stereo in doubt) [Compound 39, 4-[1-[4-[N′-(2-fluorophenyl)ureido]-3-methoxyphenylacetyl]-2-pyrrolidinyl]methoxy-3-methoxy benzoic acid], with 140 to 144 °C.

Regarding `COc1cc(CC(=O)N2C[C@@H](O)C[C@H]2COc2ccc(C(=O)O)cc2)ccc1NC(=O)Nc1ccccc1Cl` [Compound 107, 4-[1-[4-[N′-(2-chlorophenyl)ureido]-3-methoxyphenylacetyl]-(4S)-hydroxy-(2S)-pyrrolidinyl]methoxybenzoic acid], the melting point was 138 to 142 °C (dec.). `COc1cc(CC(=O)N2C[C@@H](O)C[C@H]2COc2ccc(C(=O)O)cc2)ccc1NC(=O)Nc1ccccc1Br` [Compound 108]: the melting point is 143 to 151 °C (dec.). Then `COc1cc(CC(=O)N2C[C@@H](O)C[C@H]2COc2ccc(C(=O)O)cc2)ccc1NC(=O)Nc1ccccc1C` [Compound 106], with 148 to 152 °C (dec.); and `COc1cc(CC(=O)N2C[C@H](OC)C[C@H]2COc2ccc(C(=O)O)cc2)ccc1NC(=O)Nc1ccccc1C` [Compound 135, 4-[(4R)-methoxy-1-[3-methoxy-4-[N′-(2-methylphenyl)ureido]phenylacetyl]-(2S)-pyrrolidinylmethoxy]benzoic acid], with 112 to 115 °C; and `COc1cc(CC(=O)N2CC[C@H](Oc3ccc(C(=O)O)cc3)C2)ccc1NC(=O)Nc1ccccc1Br` [Compound 184, 4-[1-[4-[N′-(2-bromophenyl)ureido]-3-methoxyphenylacetyl]-(3S)-pyrrolidinyloxy]benzoic acid], with 173 to 175 °C. Then `Cc1cc(CC(=O)N2C[C@@H](F)C[C@H]2COc2ccc(C(=O)O)cc2)ccc1NC(=O)Nc1ccccc1` [Compound 73, 4-[(4S)-fluoro-1-[3-methyl-4-(N′-phenylureido)phenylacetyl]-(2S)-pyrrolidinylmethoxy]benzoic acid], with 130 to 135 °C.

Take `COc1cc(CC(=O)N(Cc2ccccc2)[C@@H](C)COc2ccc(C(=O)O)cc2Cl)ccc1NC(=O)Nc1ccccc1F` [Compound 287, (S)-3-chloro-4-[2-[N-benzyl-N-[3-methoxy-4-[N′-(2-fluorophenyl)ureido]phenylacetyl]amino]-1-propoxy]benzoic acid]: the melting point was 125 to 130 °C. Then `COc1cc(CC(=O)N[C@@H](C)COc2ccc(C(=O)O)cc2N)ccc1NC(=O)Nc1ccccc1C` [Compound 293, (S)-3-amino-4-[2-[3-methoxy-4-[N′-(2-methylphenyl)ureido]phenylacetylamino]-1-propoxy]benzoic acid], with 200 to 204 °C. Then `COc1cc(CC(=O)N(C)CCOc2ccc(C(=O)O)cc2C(=O)O)ccc1NC(=O)Nc1ccccc1C` (as salt: salt) [Compound 254, 4-[[2-[3-methoxy-4-[N′-(2-methylphenyl)ureido]phenylacetyl]methylamino]ethoxy]isophthalic acid], with 139 to 141 °C; and `COc1cc(CC(=O)N[C@@H](C)COc2ccc(C(=O)O)cc2)ccc1NC(=O)Nc1ccccc1Br` [Compound 294, (S)-4-[2-[3-methoxy-4-[N′-(2-bromophenyl)ureido]phenylacetylamino]-1-propoxy]benzoic acid], with 202 to 205 °C; and `COc1cc(CC(=O)N(C)CCOc2ccc(C(=O)O)cc2N(C)C)ccc1NC(=O)Nc1ccccc1F` [Compound 277, 3-dimethylamino-4-[[2-[3-methoxy-4-[N′-(2-fluorophenyl)ureido]phenylacetyl]methylamino]ethoxy]benzoic acid], with 120 to 125 °C.

`COc1cc(CC(=O)NCCOc2ccc(C(=O)O)cc2[N+](=O)[O-])ccc1NC(=O)Nc1ccccc1C` [Compound 257, 3-nitro-4-[2-[3-methoxy-4-[N′-(2-methylphenyl)ureido]phenylacetyl]aminoethoxy]benzoic acid] yielded a melting point of 112 to 115 °C. `Cc1ccccc1NC(=O)Nc1ccc(CC(=O)N2CCC[C@H]2COc2ccc(C(=O)O)cc2)cc1C` [Compound 83, 4-[1-[3-methyl-4-[N′-(2-methylphenyl)ureido]phenylacetyl]-(2S)-pyrrolidinylmethoxy]benzoic acid]: the melting point fell in the range of 191 to 193 °C. Then `Cc1cc(CC(=O)N2C[C@@H](F)C[C@H]2COc2ccc(C(=O)O)cc2)ccc1NC(=O)Nc1c(Cl)cccc1Cl` [Example 83, 4-[(2S, 4S)-1-[4-[N′-(2,6-Dichlorophenyl)ureido]-3-methylphenylacetyl]4-fluoro-2-pyrrolidinyl]methoxybenzoic acid], with 174 to 180 °C (dec.); and `Cc1cc(CC(=O)N2CCC[C@H]2COc2ccc(C(=O)O)cc2)ccc1NC(=O)Nc1ccccc1Br` [Compound 82, 4-[1-[4-[N′-(2-bromophenyl)ureido]-3-methylphenylacetyl]-(2S)-pyrrolidinyl]methoxybenzoic acid], with 125 to 130 °C; and `COc1cc(CC(=O)N(C)CCNc2ccc(C(=O)O)c(NC(C)=O)c2)ccc1NC(=O)Nc1ccccc1Br` [Compound 303, 2-acetylamino-4-[2-N-[4-[N′-(2-bromophenyl)ureido]-3-methoxyphenyl]-N-methylacetamido]ethylaminobenzoic acid], with 155 to 160 °C. Next, `COc1cc(CC(=O)N2CC[C@H](Oc3ccc(C(=O)O)cc3)C2)ccc1NC(=O)Nc1ccccc1C` [Compound 182, 4-[1-[3-methoxy-4-[N′-(2-methylphenyl)ureido]phenylacetyl]-(3S)-pyrrolidinyloxy]benzoic acid]: 131 to 135 °C; `COc1cc(CC(=O)N2C[C@@H](NS(=O)(=O)c3c(C)cc(C)cc3C)C[C@H]2COc2ccc(C(=O)O)cc2)ccc1NC(=O)Nc1ccccc1Br` [Compound 162]: 130 to 132 °C. `COc1cc(CC(=O)N(C)CCNc2ccc(C(=O)O)cc2)ccc1NC(=O)Nc1ccccc1C` [Compound 282, 4-[[2-[3-methoxy-4-[N′-(2-methylphenyl)ureido]phenylacetyl]methylamino]ethylamino]benzoic acid] showed a melting point of 115 to 120 °C. `COc1cc(CC(=O)N2CCN(c3ccc(C(=O)O)cc3)CC2)ccc1NC(=O)Nc1ccccc1C` [Compound 259] gave a melting point of 240 to 245 °C. Next, `COc1cc(CC(=O)N[C@@H](C)COc2ccc(C(=O)O)cc2Cl)ccc1NC(=O)Nc1ccccc1C` [Compound 275, (S)-3-chloro-4-[2-[3-methoxy-4-[N′-(2-methylphenyl)ureido]phenylacetylamino]-1-propoxy]benzoic acid]: 198 to 201 °C. Then `COc1cc(CC(=O)N2CC[C@H](Oc3ccc(C(=O)O)cc3)C2)ccc1NC(=O)Nc1ccccc1Cl` [Compound 183, 4-[1-[4-[N′-(2-chlorophenyl)ureido]-3-methoxyphenylacetyl]-(3S)-pyrrolidinyloxy]benzoic acid], with 190 to 193 °C. Next, `COc1cc(CC(=O)NCCOc2ccc(C(=O)O)cc2OC)ccc1NC(=O)Nc1ccccc1C` [Compound 255, 3-methoxy-4-[2-[3-methoxy-4-[N′-(2-methylphenyl)ureido]phenylacetyl]aminoethoxy]benzoic acid]: 180 to 181 °C; `Cc1cc(CC(=O)N2C[C@@H](F)C[C@H]2COc2ccc(C(=O)O)cc2)ccc1NC(=O)Nc1ccccc1C(F)(F)F` [Compound 77, 4-[(4S)-fluoro-1-[3-methyl-4-[N′-(2-trifluoromethylphenyl)ureido]phenylacetyl]-(2S)-pyrrolidinylmethoxy]benzoic acid]: 123 to 126 °C. As to `COc1cc(CC(=O)N2CCCC2C#Cc2ccc(C(=O)O)cc2)ccc1NC(=O)Nc1ccccc1C` (stereo not shown) [Compound 14, 4-[2-[1-[3-methoxy-4-[N′-(2-methylphenyl)ureido]phenylacetyl]-2-pyrrolidinyl]ethynyl]benzoic acid], the melting point was in the range of 161 to 164 °C.

Compound `Cc1ccccc1NC(=O)Nc1ccc(CC(=O)N2CCCC2CCc2ccc(C(=O)O)cc2)cc1` (stereo not shown) [Compound 7, 4-[2-[1-[4-[N′-(2-methylphenyl)ureido]phenylacetyl]-2-pyrrolindinyl]ethyl]benzoic acid] yielded a melting point of 180 to 190 °C. Next, `COc1cc(CC(=O)N[C@H](C)COc2ccc(C(=O)O)cc2OC)ccc1NC(=O)Nc1ccccc1C` [Compound 260, (R)-3-methoxy-4-[2-[3-methoxy-4-[N′-(2-methylphenyl)ureido]phenylacetylamino]-1-propoxy]benzoic acid]: 168 to 169 °C.

The record behind these values is US7179819B2, “VLA-4 inhibitor compounds” (Daiichi Pharmaceutical Co., Ltd., priority 1999, dated 2007).
